Source: publication PMC7804859, “A metabolically stable apelin-17 analog decreases AVP-induced antidiuresis and improves hyponatremia” (Nature Communications, 2021)
“And” between values parts separate entries of the source, which are not always exact repeats. Identical values can stand only once. Values belong to the molecule of their own block, whether it stands above or below them. Ends that are not written are not given here.

Experiments:
human V2-R = target: T1, human V2-R (Homo sapiens, UniProt P30518); experiment: cAMP production in HEK-293 T cells expressing the human V2-R (HTRF); type: cell-based; conditions: FSK 5.10-6M
T1 construct: host or cells: HEK-293T cells, transient transfection
T1 sequence (P30518 whole entry): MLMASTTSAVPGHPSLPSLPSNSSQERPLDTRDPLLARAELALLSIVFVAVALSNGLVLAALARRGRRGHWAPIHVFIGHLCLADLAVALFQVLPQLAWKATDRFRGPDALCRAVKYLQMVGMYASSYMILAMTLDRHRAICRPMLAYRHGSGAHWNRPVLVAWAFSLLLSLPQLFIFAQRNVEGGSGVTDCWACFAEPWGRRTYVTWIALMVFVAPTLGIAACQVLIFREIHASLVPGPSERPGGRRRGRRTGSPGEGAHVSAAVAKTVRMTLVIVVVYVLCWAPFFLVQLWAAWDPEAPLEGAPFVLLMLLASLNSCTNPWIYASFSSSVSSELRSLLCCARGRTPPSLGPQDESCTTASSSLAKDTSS
Experimental: (§1) 152 Supplementary Methods
(§2) 154 We quantified cAMP production with the cAMP dynamic 2 assay kit (Cisbio Bioassays,
(§3) 155 Codolet, France), which is based on homogeneous time-resolved fluorescence (HTRF)
156 technology, as previously described 1. […]
For cells expressing the V2-R, HEK-
160 293T cells were transiently transfected with the human V2-R (cDNA Resource Center), after
161 48h, 4000 cells/well were added to white 384-well optiplates and stimulated either with 5
(§4) Cells were then lysed, and
(§5) 165 cAMP levels were determined in accordance with the kit manufacturer’s instructions.
(§6) 166 Stimulation was performed in stimulation buffer-IBMX (SBI) (Hank’s balanced salt solution
(§7) 167 (HBSS-Life Technology), 5 mmol/l Hepes, 0.1% BSA stabilizer (Perkin Elmer), 1 mmol/l
(§8) 168 isobutylmethylxanthine (IBMX, Sigma Aldrich, pH 7.4)). […]

in vivo [1] = conditions: rat, in vivo, iv
Experimental: (§9) 187 Apelin radioimmunoassay
(§10) 188 Plasma samples (0.5 ml) were acidified with 0.175 ml of 3 mol/l HCl and stored at -80°C
(§11) 189 until use for apelin RIA. Before thawing the sample on ice, 0.05% BSA was added, and the
(§12) 190 samples were centrifuged at 20000 x g at 4°C for 10 min. The supernatants were collected and
(§13) 191 the pH was adjusted to 6.5 with 10 mol/l NaOH and 2 mol/l Tris-HCl buffer (pH 7.4). Apelin
(§14) 192 was extracted from plasma by mixing the supernatant with 0.3 ml of 0.1% BSA in H2O and 1
(§15) 193 ml of 1% trifluoroacetic acid (TFA) - 0.1% BSA, and running the mixture on a Sep-Pak C18
(§16) 194 cartridge (Waters) previously washed with 2 ml 100% acetonitrile and equilibrated with 5 ml
(§17) 195 1% TFA - 0.1% BSA. The columns then were washed with 3 ml 1% TFA - 0.1% BSA and
(§18) 196 apelin was eluted with 1.5 ml 100% acetonitrile. […]
(§19) 208 Plasma or brain apelin levels w ere deter mined by RIA. Samples (0.1ml) w ere mixed with 125I-
(§20) 211 dilution: 1/4500) to give a total volume of 0.2 ml and were incubated at 4°C overnight. We
(§21) 212 used this radioligand instead of [Glp65, Nle75, Tyr77] [125I]-apelin13 since the substitution of
(§22) 214 derivatives as described previously by 3,4.
(§23) 215 We then added 0.5 ml of Amerlex (Amersham RPN 510), and the resulting mixture was
(§24) 216 incubated for 10 min at room temperature. The tubes were centrifuged at 2600 x g at 4°C for
217 20 min. The supernatant was removed and the radioactivity of the precipitates was measured.
218 We assessed the cross-reactivity of the apelin antiserum with various N- and C-terminally
232 according to the following equation: [plasma apelin] tx = [plasma apelin] t0 * e(-kt) , where k is
233 the elimination rate constant. […]

in vivo [2] = conditions: mouse, in vivo, iv
Experimental: as §9, §10, §11, §12, §13, §14, §15, §16, §17, §18, §19, §20, §21, §22, §23, §24
217 20 min. The supernatant was removed and the radioactivity of the precipitates was measured. […]

rat apelin-R = target: T2, rat apelin-R (Rattus norvegicus, UniProt Q9JHG3); experiment: Radioligand binding ([125I]-pE13F) to membranes from CHO cells stably expressing rat apelin-R-EGFP; conditions: 1 h 20 °C, pH 7.4, new batch of LIT01-196
T2 construct: expressed in transfected cells; membrane preparation
T2 sequence (Q9JHG3 1-377): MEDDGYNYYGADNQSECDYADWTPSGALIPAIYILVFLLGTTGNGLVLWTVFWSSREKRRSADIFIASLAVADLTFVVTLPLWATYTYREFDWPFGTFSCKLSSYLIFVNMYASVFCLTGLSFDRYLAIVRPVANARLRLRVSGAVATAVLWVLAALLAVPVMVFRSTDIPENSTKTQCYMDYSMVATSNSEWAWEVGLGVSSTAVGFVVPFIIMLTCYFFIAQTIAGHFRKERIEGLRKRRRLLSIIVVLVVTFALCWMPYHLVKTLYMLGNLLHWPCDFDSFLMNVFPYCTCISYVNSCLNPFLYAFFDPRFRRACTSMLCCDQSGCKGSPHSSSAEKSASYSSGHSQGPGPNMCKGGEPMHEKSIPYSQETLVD
Experimental: Membranes from CHO cells stably expressing rat apelin-R-EGFP were prepared as previously described[23]. […] The reaction was stopped by adding ice-cold binding buffer and filtering through Whatman GF/C filters. The filters were washed and radioactivity was counted with a Wizard 1470 Wallac gamma counter (PerkinElmer, Turku, Finland).

rat apelin-R-EGFP = target: T3, rat apelin-R-EGFP (Rattus norvegicus, UniProt Q9JHG3); experiment: Inhibition of forskolin-induced cAMP production in CHO cells stably expressing rat apelin-R-EGFP (HTRF); type: cell-based; conditions: 5 µmol/l forskolin, 30 min 20 °C
T3 construct: expressed in transfected cells
T3 sequence (Q9JHG3 1-377): T2 sequence (Q9JHG3 1-377)
Experimental: as §1, §2, §3
156 technology, as previously described 1. For cells expressing the Apelin-R, 2000 CHO cells/well
157 stably expressing rat apelinR-EGFP (clone B70) were added to the 384-well plate and
158 stimulated with 5 µmol/l forskolin (FSK) and various concentrations (0.01 pmol/l to 100 […]
as §4, §5, §6, §7, §8

[3] = test system: normonatremic Sprague-Dawley rats; experiment: Effects of s.c. administration on metabolic parameters in normonatremic rats; type: in vivo, rat
hyponatremic rats = experiment: Plasma AVP and apelin-IR levels in hyponatremic rats (RIA); type: in vivo, rat
Experimental: as §9
(§25) 189 until use for apelin RIA.
(§26) The supernatants were collected and
(§27) The samples were dried and dissolved in
(§28) 201 centrifuged (17000 x g, 4°C, 20 min). The supernatant (4 ml) was collected, and mixed with
(§29) The columns were then treated as described in
(§30) Samples (0.1ml) w ere mixed with 125I-
as §21, §22
(§31) 216 incubated for 10 min at room temperature.
(§32) This antiserum identified the apelin present in the
(§33) Most of the apelin in human plasma was
(§34) 252 TechMedILL platfor m (Illkirch) reviewed and approved by the agriculture ministry regulating
(§35) 256 Male Sprague-Dawley rats were killed by decapitation, and trunk blood was collected on ice
(§36) 257 (into 50 µl of 0.3M EDTA (pH 7.4) per 1 ml of blood). Samples were centrifuged (2,600 x g,
(§37) 258 4°C, 20 min), and the resulting plasma was split into 500 µl aliquots, to which we added 168
(§38) 259 µl of 3N HCl before storage at -80°C. The AVP RIA was performed as previously described
(§39) 260 5, using a specific AVP-[Arg8] antibody (final dilution, 1/4.5) and [125I]-(Tyr2Arg8)-AVP
(§40) 261 (2200 Ci/mmol, Perkin-Elmer, Billerica, MA; 15000 dpm) as a tracer. […]

control rats = experiment: Plasma AVP and apelin-IR levels in control rats (RIA); type: in vivo, rat; parameters: Apelin / AVP: unit not given here
Experimental: as §9, §25, §26, §27, §28, §29, §30, §21, §22, §31, §32, §33, §34, §35, §36, §37, §38, §39, §40

patients = conditions: cited from earlier work
[4] = test system: hyponatremic rats (AVP 30 ng/h); experiment: Effects of LIT01-196 and tolvaptan in rat model of AVP-induced hyponatremia; type: in vivo
Experimental: Meloxicam was administered postoperatively for analgesia. Animals were then individually housed in metabolic cages (Techniplast), and given a semi-liquid diet consisting of 25 ml Gel-Diet Breeding-10 (SAFE, Augy, France) mixed with 25 ml tap water per day, with water available ad libitum. Animal weight, water, and food consumption were measured daily. Urine was collected daily, urinary electrolytes (Na^+, K^+, Cl^−) were determined with an ISE 3000 (Caretium Medical Instruments, Shenzhen, China) and urinary osmolality was measured with a Cryobasic 1 osmometer (Astori Tecnica, Poncarale, Italy). Blood samples were collected on ice, before implantation of the osmotic minipump, and before drug administration, under isoflurane anesthesia, from the tail vein (4 µl of lithium heparinate (1600 IU/ml) for 400 µl of blood). The blood samples were immediately centrifuged (4 °C, 2600 × g, 20 min), and plasma electrolyte (Na^+, K^+, Cl^−) levels were quantified with an ISE 3000. On the last day of the experiment, blood was also collected on ice by intracardiac puncture. This blood sample was collected into lithium heparinate under isoflurane anesthesia; plasma electrolyte levels were determined as described above and the animals were immediately killed by carbon monoxide inhalation.

anti-K17F serum = experiment: Inhibition of [125I]-pE13F binding to anti-K17F serum (apelin RIA, cross-reactivity); parameters: species or system rabbit; conditions: read-out: IC50, recognition by antibody directed against K17F, antiserum 1/4500
Experimental: as §29, §30, §21, §22, §31, §32
Most of the apelin in human plasma was […]

[5] = 900 nmol/kg SC (tolvaptan 0.4.SC [sic]), normonatremic rats, single animals

cAMP production, Value (Fig 2B) (human V2-R; experiment 1): 139.382
cAMP production, Value (Fig 2B) (human V2-R; experiment 2): 85.1109
cAMP production, Value (Fig 2B) (human V2-R; experiment 3): 116.78
cAMP production, Value (Fig 2B) (human V2-R; experiment 4): 128.996
Molecule: C=C[C@@]1(C)CC(=O)[C@]2(O)[C@@]3(C)[C@@H](O)CCC(C)(C)[C@@H]3[C@H](O)[C@H](OC(C)=O)[C@@]2(C)O1 [FSK]

half-life (in vivo [1]): 50 s
half-life (in vivo [2]): 44 s
Ki (rat apelin-R): 0.14 ± 0.02 nM
IC50 (rat apelin-R-EGFP): 0.6 ± 0.2 nM
Molecule: CSCC[C@H](NC(=O)[C@@H]1CCCN1C(=O)CNC(=O)[C@H](CCCCN)NC(=O)[C@H](Cc1cnc[nH]1)NC(=O)[C@H](CO)NC(=O)[C@H](CC(C)C)NC(=O)[C@H](CCCNC(=N)N)NC(=O)[C@@H]1CCCN1C(=O)[C@H](CCCNC(=N)N)NC(=O)[C@H](CCC(N)=O)NC(=O)[C@H](CCCNC(=N)N)NC(=O)[C@H](CCCNC(=N)N)NC(=O)[C@H](Cc1ccccc1)NC(=O)[C@@H](N)CCCCN)C(=O)N1CCC[C@H]1C(=O)N[C@@H](Cc1ccccc1)C(=O)O [K17F, reference compound]

Molecule: Cc1ccccc1C(=O)Nc1ccc(C(=O)N2CCCC(O)c3cc(Cl)ccc32)c(C)c1 (stereo not shown) [tolvaptan, reference compound]
Urine osmolality (3 hours) [3, 5]: 400 and 540 and 520 and 404 and 412
Urine osmolality (6 hours) [3, 5]: 484 and 656 and 532 and 492 and 496
Urine osmolality (24 hours) [3, 5]: 772 and 1396 and 1244 and 1552 and 1324 and 1300 and 1592 and 1040 and 1416 and 1184 and 2300 and 1048
increase in water intake ([3]; 900 nmol/kg s.c., 24 h): 37%
increase in water intake to food intake ratio ([3]; 900 nmol/kg s.c., 24 h): 24%
increase in 24-h urine output relative to saline ([3]; 900 nmol/kg s.c., normonatremic rats): 77%
decrease in urine osmolality ([3]; 900 nmol/kg s.c., normonatremic rats, 24 h): 40%
Sodium excretion fraction ([3]; LIT01-196 900 nmol/kg, tolvaptan 6700 nmol/kg s.c., 24 h): not changed
Water excretion fraction ([3]; Tolvaptan 6700 nmol/kg SC, individual animals (Fig. S4C source data)): 0.8154 and 1.026 and 2.311 and 0.5818 and 0.7955 and 0.7
Sodium excretion fraction ([3]; Tolvaptan 6700 nmol/kg SC, individual animals (Fig. S4D source data)): 0.6016 and 0.6502 and 0.5049 and 0.3349 and 0.4657 and 0.6432
Water to food ratio ([3]; normonatremic rats, 900 nmol/kg SC, individual animal values (source data Fig. 4L)): 1.532 and 1.653 and 1.89 and 1.641 and 1.608
plasma AVP and apelin levels versus AVP + saline (hyponatremic rats; 6700 nmol/kg s.c., 3 h): similar
Plasma AVP (hyponatremic rats; AVP 30 ng/h rats, individual animals (Fig. 6A source data)): 39.2062 and 41.6048 and 44.1878 and 29.3355 and 51.7522 and 30.996 and 44.9258 and 45.018
Plasma apelin (hyponatremic rats; AVP 30 ng/h rats, individual animals (Fig. 6B source data)): 312 and 375 and 335 and 404 and 283 and 315 and 384 and 365
Apelin to AVP ratio (hyponatremic rats; AVP 30 ng/h rats, individual animals (Fig. 6C source data)): 7.958 and 9.013 and 7.581 and 13.7717 and 5.468 and 10.1626 and 8.547 and 8.108
plasma apelin-IR levels versus control rats (control rats; 3 h after 6700 nmol/kg s.c.): similar
plasma apelin/AVP ratio versus saline (control rats; 3 h after 6700 nmol/kg s.c.): similar
plasma AVP levels, higher than in animals receiving saline (control rats; 3 h after s.c., tolvaptan 6700 nmol/kg, LIT01-196 900 nmol/kg): 147%
AVP (control rats; plasma AVP, Tolvaptan 6700 nmol/kg SC, individual animals (Fig. S4F source data)): 46.8225 and 42.0318 and 57.2512 and 20.2981 and 21.5164 and 46.682
Apelin (control rats; plasma apelin-IR, Tolvaptan 6700 nmol/kg SC, individual animals (Fig. S4E source data)): 782.319 and 460.81 and 574.125 and 749.499 and 564.407 and 576.365
apelinAVPratio (control rats; plasma apelin/AVP ratio, Tolvaptan 6700 nmol/kg SC, individual animals (Fig. S4G source data)): 16.7082 and 10.9634 and 10.0282 and 36.9246 and 26.2315 and 12.3466
patients with overly rapid sodium correction (patients; 7.5 mg per day, hyponatremia patients, baseline serum sodium <125 mmol/l): 23%
patients with ADPKD discontinuing treatment for aquaresis-related events (patients): 8%
increase in urine output 24 h after s.c. administration ([4]; 900 nmol/kg s.c., rats receiving 30 ng/h AVP and liquid diet): 9.5 ± 2.9 ml/24 h/100 g
increase in urine output 24 h after s.c. administration ([4]; 6700 nmol/kg s.c., rats receiving 30 ng/h AVP): 27 ± 9.0 ml/24 h/100 g

Molecule: Fluoro-K16P: not recognized by the antibody directed against K17F (KFRRQRPRLSHKGPMP; also: fluorescent label, site and dye not given here; UniProt Q9ULZ1 61-76, looked up, fragment) [reference compound]
IC50 (anti-K17F serum): > 1000 nM
